Measured values as given in patent US20040176431A1, “Antiproliferative 2-(sulfo-phenyl)-aminothiazole derivatives and pharmaceutical compositions, and methods for their use” (Pfizer, Inc., priority 2003, published 2004).

Columns and labels:
CDK2/cyclin A = molecular target: T1, CDK2/cyclin A (Homo sapiens, UniProt P24941); assay: Inhibition of CDK2/Cyclin A retinoblastoma kinase activity; format: biochemical; settings: apparent Ki, Rb fragment substrate
T1 construct: made in house; host or cells: CDK2: insect cells (baculovirus); cyclin A: E. coli, then limited proteolysis
Method: Cyclin-dependent kinase activity was measured by quantifying the enzyme-catalyzed, time-dependent incorporation of radioactive phosphate from [^32P]ATP or [^33P]ATP into a protein substrate. Unless noted otherwise, assays were performed in 96-well plates in a total volume of 50 μL, in the presence of 10 mM HEPES (N-[2-hydroxyethyl]piperazine-N′-[2-ethanesulfonic acid]) (pH 7.4), 10 mM MgCl2, 25 μM adenosine triphosphate (ATP), 1 mg/mL ovalbumin, 5 μg/mL leupeptin, 1 mM dithiothreitol, 10 mM β-glycerophosphate, 0.1 mM sodium vanadate, 1 mM sodium fluoride, 2.5 mM ethylene glycol-bis(β-aminoethyl ether)-N,N,N′N′-tetraacetic acid (EGTA), 2% (v/v) dimethylsulfoxide, and 0.03-0.4 μCi [^32/33P]ATP per reaction. Reactions were initiated with enzyme, incubated at 30° C., and terminated after 20 minutes by the addition of ethylenediaminetetraacetic acid (EDTA) to 250 mM. The phosphorylated substrate was then captured on a nitrocellulose or phosphocellulose membrane using a 96-well filtration manifold, and unincorporated radioactivity was removed by repeated washing with 0.85% phosphoric acid. Radioactivity was quantified by exposing the dried membranes to a phosphorimager.
Inhibition was measured relative to control wells that contained all reaction components including 2% (v/v) DMSO but no compound, after subtraction of background radioactivity measured in the absence of enzyme. Apparent Ki values of discrete compounds were measured by assaying enzyme activity in the presence of different inhibitor compound concentrations and subtracting the background radioactivity measured in the absence of enzyme. The kinetic parameters (kcat, Km for ATP) were measured for each enzyme under the usual assay conditions by determining the dependence of initial rates on ATP concentration. Inhibition data were fit to an equation for competitive inhibition using Kaleidagraph (Synergy Software), or were fit to an equation for competitive tight-binding inhibition using the software KineTic (BioKin, Ltd.).
CDK2 was purified using published methodology (Rosenblatt et al., J. Mol. Biol., 230, 1317-1319 (1993)) from insect cells that had been infected with a baculovirus expression vector. Cyclin A was purified from E. coli cells expressing full-length recombinant cyclin A, and a truncated cyclin A construct was generated by limited proteolysis and purified as described previously (Jeffrey et al., Nature, 376, 313-320 (1995)). A complex of CDK2 and proteolyzed cyclin A was prepared and purified by gel filtration. The substrate for this assay was the same Rb substrate fragment used for the CDK4 assays, and the methodology of the CDK2/delta cyclin A and the CDK4/delta cyclin D3 assays was essentially the same, except that CDK2 was present at 10 nM or 19 nM. The duration of the assay was 60 or 75 minutes, during which the time-dependence of product formation was linear and initial rate conditions were met.

HCT-116 cells = assay: Inhibition of cell growth (MTT tetrazolium salt assay); format: cell-based; settings: Homo sapiens; for IC50: read-out: HCT116 IC50; for IC90: read-out: HCT116 IC90
Method: Inhibition of cell growth was measured using the tetrazolium salt assay, which is based on the ability of viable cells to reduce 3-(4,5-dimethylthiazol-2-yl)-2,5-[2H]-diphenyltetrazolium bromide (MTT) to formazan (Mosmann, J. Immunol. Meth., 65, 55-63 (1983)). The water-insoluble purple formazan product was then detected spectrophotometrically. HCT-116 cells were grown in 96-well plates. Cells were plated in the appropriate medium at a volume of 135 μl/well in either McCoy's 5A Medium. Plates were incubated for four hours before addition of inhibitor compounds. Different concentrations of inhibitor compounds were added in 0.5% (v/v) dimethylsulfoxide (15 μL/well), and cells were incubated at 37° C. (5% CO2) for four to six days (depending on cell type). At the end of the incubation, MTT was added to a final concentration of 0.2 mg/mL, and cells were incubated for 4 hours more at 37° C. After centrifugation of the plates and removal of medium, the absorbance of the formazan (solubilized in dimethylsulfoxide) was measured at 540 nm. […] All results were compared to control cells treated only with 0.5% (v/v) dimethylsulfoxide.

CDK4/cyclin D3 = molecular target: T2, CDK4/cyclin D3 (Homo sapiens, UniProt P11802); assay: Inhibition of CDK4/Cyclin D retinoblastoma kinase activity; format: biochemical; settings: apparent Ki, Rb fragment substrate
T2 construct: made in house; host or cells: insect cells (baculovirus co-infection)
In short: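 Human CDK4 with truncated cyclin D3 (1-264) from baculovirus-infected insect cells, 5 nM, phosphorylating His-tagged Rb fragment (386-928) with 25 μM [32P/33P]ATP in pH 7.4 HEPES/MgCl2, 2% DMSO, 30° C., 20 min (60 min for tight binders). Filter capture, phosphorimager; apparent Ki from competitive or tight-binding competitive fits.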

T2 sequence (P11802 whole entry, the tested form may be a part): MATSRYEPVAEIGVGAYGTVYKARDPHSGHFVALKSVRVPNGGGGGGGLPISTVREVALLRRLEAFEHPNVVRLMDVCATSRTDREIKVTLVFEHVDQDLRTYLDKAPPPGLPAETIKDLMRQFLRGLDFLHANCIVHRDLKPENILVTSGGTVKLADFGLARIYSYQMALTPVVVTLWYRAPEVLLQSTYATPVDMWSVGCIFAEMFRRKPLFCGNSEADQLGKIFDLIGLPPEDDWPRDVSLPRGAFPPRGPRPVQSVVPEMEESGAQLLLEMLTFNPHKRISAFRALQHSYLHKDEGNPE
T2 sequence (P30281 1-264 partner limits assumed): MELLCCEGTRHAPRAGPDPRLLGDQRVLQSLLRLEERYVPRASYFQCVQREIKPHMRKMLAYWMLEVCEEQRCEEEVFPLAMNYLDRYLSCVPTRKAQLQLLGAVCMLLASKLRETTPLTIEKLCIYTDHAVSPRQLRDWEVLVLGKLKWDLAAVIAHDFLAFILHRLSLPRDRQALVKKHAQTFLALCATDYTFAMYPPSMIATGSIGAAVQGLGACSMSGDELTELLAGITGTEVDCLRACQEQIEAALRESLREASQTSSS

Row | Compound | Ki (CDK2/cyclin A) [nM] | IC50 (HCT-116 cells) [nM] | IC90 (HCT-116 cells) [nM] | Ki (CDK4/cyclin D3) [nM]
1 | Cc1ccc(CNS(=O)(=O)c2ccc(Nc3nc(N)c(C(=O)c4c(F)cc(F)cc4F)s3)cc2)o1 [B(1), 4-[4-Amino-5-(2,4,6-trifluoro-benzoyl)-thiazol-2-ylamino]-N-(5-methyl-furan-2-ylmethyl)-benzenesulfonamide] | < 10 | 900 | 2000 | 100
2 | CC(CCCC(C)(C)O)NS(=O)(=O)c1ccc(Nc2nc(N)c(C(=O)c3c(F)cc(F)cc3F)s2)cc1 (centres unmarked) [B(2), 4-[4-Amino-5-(2,4,6-trifluoro-benzoyl)-thiazol-2-ylamino]-N-(5-hydroxy-1,5-dimethyl-hexyl)-benzenesulfonamide] | 1.3 | 980 | 2300 | 6.2
3 | Nc1nc(Nc2ccc(S(=O)(=O)NC3CCNCC3)cc2)sc1C(=O)c1c(F)cccc1F [BB(1), 4-[4-Amino-5-(2,6-difluoro-benzoyl)-thiazol-2-ylamino]-N-piperidin-4-yl-benzenesulfonamide] | 13 | 22000 | > 50000 | 13
4 | Nc1nc(Nc2ccc(S(=O)(=O)Nc3ccccc3)cc2)sc1C(=O)c1c(F)cccc1F [C(1), 4-[4-Amino-5-(2,6-difluoro-benzoyl)-thiazol-2-ylamino]-N-phenyl-benzenesulfonamide] | 17 | 870 | 1900 | 76
5 | Cc1ccsc1C(=O)c1sc(Nc2ccc(S(N)(=O)=O)cc2)nc1N [C(48)*, reference compound] | 11 | 340 |  | 19.1
6 | Nc1nc(Nc2ccc(S(=O)(=O)NCC3CCCNC3)cc2)sc1C(=O)c1c(F)cccc1F (centres unmarked) [D(1), 4-[4-Amino-5-(2,6-difluoro-benzoyl)-thiazol-2-ylamino]-N-piperidin-3-ylmethyl-benzenesulfonamide] | 18 | 17000 | > 25000 | 12
7 | Nc1nc(Nc2ccc(S(=O)(=O)NCC3CCCCN3)cc2)sc1C(=O)c1c(F)cccc1F (centres unmarked) [D(2), 4-[4-Amino-5-(2,6-difluoro-benzoyl)-thiazol-2-ylamino]-N-piperidin-2-ylmethyl-benzenesulfonamide] | 45 | 4000 | 9200 | 20
8 | Cc1csc(NS(=O)(=O)c2ccc(Nc3nc(N)c(C(=O)c4c(F)cccc4F)s3)cc2)n1 [E(1), 4-[4-Amino-5-(2,6-difluoro-benzoyl)-thiazol-2-ylamino]-N-(4-methyl-thiazol-2-yl)-benzenesulfonamide] | 15 | 7000 | 17000 | 42
9 | Nc1nc(Nc2ccc(S(=O)(=O)N3CCNCC3)cc2)sc1C(=O)c1c(F)cccc1F [Example A(1), {4-Amino-2-[4-(piperazine-1-sulfonyl)-phenylamino]-thiazol-5-yl}-(2,6-difluoro-phenyl)-methanone] | 14 | 1000 | 2700 | 26
10 | CN(C)CCNS(=O)(=O)c1ccc(Nc2nc(N)c(C(=O)c3c(F)cccc3F)s2)cc1 [Example A(2), 4-[4-Amino-5-(2,6-difluoro-benzoyl)-thiazol-2-ylamino]-N-(2-dimethylamino-ethyl)-benzenesulfonamide] | 4.5 | 360 | 1100 | 7.5
11 | Nc1nc(Nc2ccc(S(=O)(=O)NCCOCCO)cc2)sc1C(=O)c1c(F)cccc1F [Example A(6), 4-[4-Amino-5-(2,6-difluoro-benzoyl)-thiazol-2-ylamino]-N-[2-(2-hydroxy-ethoxy)-ethyl]-benzenesulfonamide] | 5.3 | 1900 | 4200 | 26
12 | Nc1nc(Nc2ccc(S(=O)(=O)NCCNc3ccccc3)cc2)sc1C(=O)c1c(F)cccc1F [Example A(9), 4-[4-Amino-5-(2,6-difluoro-benzoyl)-thiazol-2-ylamino]-N-(2-phenylamino-ethyl)-benzenesulfonamide] | < 5 | 140 | 400 | < 5
13 | CC(CCCC(C)(C)O)NS(=O)(=O)c1ccc(Nc2nc(N)c(C(=O)c3c(F)cccc3F)s2)cc1 (centres unmarked) [Example A(12), 4-[4-Amino-5-(2,6-difluoro-benzoyl)-thiazol-2-ylamino]-N-(5-hydroxy-1,5-dimethyl-hexyl)-benzenesulfonamide] | < 5 | 150 | 630 | 4.2
14 | CCN(CC)CCCNS(=O)(=O)c1ccc(Nc2nc(N)c(C(=O)c3c(F)cccc3F)s2)cc1 [Example A(13), 4-[4-Amino-5-(2,6-difluoro-benzoyl)-thiazol-2-ylamino]-N-(3-diethylamino-propyl)-benzenesulfonamide] | 10 | 730 | 3000 | 8.9

Next, values leading:

Row | Ki (CDK2/cyclin A) [nM] | IC50 (HCT-116 cells) [nM] | IC90 (HCT-116 cells) [nM] | Ki (CDK4/cyclin D3) [nM] | Compound
15 | 9.4 | 2900 | > 5000 | 5.7 | CNCCNS(=O)(=O)c1ccc(Nc2nc(N)c(C(=O)c3c(F)cccc3F)s2)cc1 [D(3), 4-[4-Amino-5-(2,6-difluoro-benzoyl)-thiazol-2-ylamino]-N-(2-methylamino-ethyl)-benzenesulfonamide]
16 | 3.5 | 340 | 720 | 53 | COCCNS(=O)(=O)c1ccc(Nc2nc(N)c(C(=O)c3c(F)cccc3F)s2)cc1 [Example A(3)]
17 | 4.5 | 1000 | 2800 | 28 | Nc1nc(Nc2ccc(S(=O)(=O)NCCO)cc2)sc1C(=O)c1c(F)cccc1F [Example A(4), 4-[4-Amino-5-(2,6-difluoro-benzoyl)-thiazol-2-ylamino]-N-(2-hydroxy-ethyl)-benzenesulfonamide]
18 | 5.7 | 1300 | 3000 | 24 | Nc1nc(Nc2ccc(S(=O)(=O)NCCCCO)cc2)sc1C(=O)c1c(F)cccc1F [Example A(5), 4-[4-Amino-5-(2,6-difluoro-benzoyl)-thiazol-2-ylamino]-N-(4-hydroxy-butyl)-benzenesulfonamide]
19 | 11 | 2400 | 5000 | 9.9 | Nc1nc(Nc2ccc(S(=O)(=O)NCCCN3CCCC3)cc2)sc1C(=O)c1c(F)cccc1F [Example A(8), 4-[4-Amino-5-(2,6-difluoro-benzoyl)-thiazol-2-ylamino]-N-(3-pyrrolidin-1-yl-propyl)-benzenesulfonamide]
20 | 2.2 | 900 | 2200 | 12 | CC(C)OCCCNS(=O)(=O)c1ccc(Nc2nc(N)c(C(=O)c3c(F)cccc3F)s2)cc1 [Example A(10), 4-[4-Amino-5-(2,6-difluoro-benzoyl)-thiazol-2-ylamino]-N-(3-isopropoxy-propyl)-benzenesulfonamide]
21 | 6 | 420 | 1700 | 8.1 | Nc1nc(Nc2ccc(S(=O)(=O)NCCCN3CCCCC3)cc2)sc1C(=O)c1c(F)cccc1F [Example A(14), 4-[4-Amino-5-(2,6-difluoro-benzoyl)-thiazol-2-ylamino]-N-(3-piperidin-1-yl-propyl)-benzenesulfonamide]
